From patent US11685744B2, “CDK inhibitors and their use as pharmaceuticals” (Prelude Therapeutics, Incorporated, priority 2020, dated 2023) come the findings set out here.

This assay concerns the target CDK4/Cyclin D1 (Homo sapiens (Human), UniProt P11802). The assay is described as follows: CDK4/CyclinD1 enzymatic activity assay (TR-FRET). The class given is biochemical. As to conditions: ATP 2 mM, read-out: CDK4_D1 IC50. The protocol:
CDK4/CyclinD1 Enzymatic Activity Assay
The inhibitory activity of compounds was evaluated in vitro using TR-FRET assay with white 384-well low volume microplate (Greiner Bio-One). CDK4/Cyclin D1 catalyzed phosphorylation of peptide in the presence and absence of compounds was measured. IC50 determination. Recombinant protein complex CDK4/Cyclin D1, expressed from insect cell, was purchased from ProQinase. Testing compounds were dissolved in DMSO at 0.1 mM and tested in 9-dose IC50 mode. The reaction mixture was prepared by mixing CDK4/CyclinD1 (1 nM final), ULight-4E-BP1 (100 nM final, Perkinelmer, TRF0128-D), and ATP (2 mM final) in assay buffer (20 mM of HEPES pH 7.4, 1 mM of EGTA, 0.05% BSA, 0.005% Tween 20, and 1 mM TCEP). The compound of interest in DMSO was added to each well in 3-fold serial dilution by dispenser (TECAN D300E). After 20 minutes preincubation at room temperature, MgCl2 (10 mM final) was added to initiate the reaction. Following a 60 minutes incubation at 37° C., the reaction was stopped by addition of 2 μL of quenching buffer consisting of Lance detection buffer (Perkinelmer CR97-100C), 2 nM LANCE Ultra Europium-anti-P-4E-BP1 (Perkinelmer, TRF0216-D), 10 mM EDTA, and incubate at room temperature for additional 60 minutes in dark. The reaction signal was measured by Envision multimode plate reader (PerkinElmer, 2102-0010). IC50 values were determined by fitting the data to the standard 4 parameters with Hill Slope using GraphPad Prism software.
On the technique in general: TR-FRET usually uses a lanthanide donor and a delayed reading to cut background.

Sequence of CDK4/Cyclin D1 (P11802 whole entry): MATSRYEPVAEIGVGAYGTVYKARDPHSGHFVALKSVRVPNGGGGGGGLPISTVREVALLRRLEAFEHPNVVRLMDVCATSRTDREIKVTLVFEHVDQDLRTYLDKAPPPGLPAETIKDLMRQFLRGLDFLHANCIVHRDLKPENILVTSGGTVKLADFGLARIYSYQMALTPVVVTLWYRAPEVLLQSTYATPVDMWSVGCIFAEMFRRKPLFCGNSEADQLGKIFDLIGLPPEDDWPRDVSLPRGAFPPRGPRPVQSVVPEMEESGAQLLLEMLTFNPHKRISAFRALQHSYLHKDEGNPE
Sequence of CDK4/Cyclin D1 (P24385 whole entry partner): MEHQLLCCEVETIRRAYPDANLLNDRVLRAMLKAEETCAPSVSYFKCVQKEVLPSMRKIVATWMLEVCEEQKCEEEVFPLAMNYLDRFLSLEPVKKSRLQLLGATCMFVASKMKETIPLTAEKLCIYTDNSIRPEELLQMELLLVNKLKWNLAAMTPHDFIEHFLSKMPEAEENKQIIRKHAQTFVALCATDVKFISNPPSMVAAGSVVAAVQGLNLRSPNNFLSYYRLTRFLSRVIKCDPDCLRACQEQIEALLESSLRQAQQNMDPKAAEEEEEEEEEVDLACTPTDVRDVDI

Consider `CCN1CCN(Cc2ccc(Nc3ncc(F)c(-c4sc5c(nc(C)n5C5CCCC5)c4C)n3)nc2)CC1` [Example 12, 4-(3-Cyclopentyl-2,6-dimethyl-3H-thieno[2,3-d]imidazol-5-yl)-N-(5-((4-ethylpiperazin-1-yl)methyl)pyridin-2-yl)-5-fluoropyrimidin-2-amine], for which the half-inhibitory concentration (IC50) lay within 200 to 2000 nM. Then `CCN1CC2(C1)CN(c1ccc(Nc3ncc(F)c(-c4cc5nccc(C6CCCC6)c5s4)n3)nc1)C2` [Example 15, 4-(7-Cyclopentylthieno[3,2-b]pyridin-2-yl)-N-[5-(6-ethyl-2,6-diazaspiro[3.3]heptan-2-yl)pyridin-2-yl]-5-fluoropyrimidin-2-amine], with no more than 20 nM; and `Cc1c(-c2nc(Nc3ccc(N4CCNCC4)cn3)ncc2F)sc2c(C3CCCC3)ccnc12` [Example 35, 4-(7-Cyclopentyl-3-methylthieno[3,2-b]pyridin-2-yl)-5-fluoro-N-(5-(piperazin-1-yl)pyridin-2-yl)pyrimidin-2-amine], with no more than 20 nM; and `Cc1nc2cc(-c3nc(Nc4ccc(CN5CCC(C(=O)N(C)C)C5)cn4)ncc3F)sc2n1C(C)C` (stereo not drawn) [Example 65, 1-[[6-[[5-Fluoro-4-(2-methyl-3-propan-2-ylthieno[2,3-d]imidazol-5-yl)pyrimidin-2-yl]amino]pyridin-3-yl]methyl]-N,N-dimethylpyrrolidine-3-carboxamide], with 20 to 200 nM. As for `Cc1c(-c2nc(Nc3ccc(N4CC5(CN(C)CC5(F)F)C4)cn3)ncc2F)sc2c1nc(C)n2C(C)C` [Example 70, N-[5-(5,5-Difluoro-7-methyl-2,7-diazaspiro[3.4]octan-2-yl)pyridin-2-yl]-4-(2,6-dimethyl-3-propan-2-ylthieno[2,3-d]imidazol-5-yl)-5-fluoropyrimidin-2-amine], the IC50 was no more than 20 nM. In the case of `Cc1c(-c2nc(Nc3ccc(N4CCC5(CCN(C)C5)C4)cn3)ncc2F)sc2c(C(C)C)cn(C)c(=O)c12` (stereo not drawn) [Example 76, 2-(5-Fluoro-2-((5-(7-methyl-2,7-diazaspiro[4.4]nonan-2-yl)pyridin-2-yl)amino)pyrimidin-4-yl)-7-isopropyl-3,5-dimethylthieno[3,2-c]pyridin-4(5H)-one] it was no more than 20 nM; in that of `CCN1CC2(C1)CN(c1ccc(Nc3ncc(F)c(-c4sc5c(C6CC6)n(C)nc5c4C)n3)nc1)C2` [Example 101, 4-(3-Cyclopropyl-2,6-dimethyl-2H-thieno[3,2-c]pyrazol-5-yl)-N-(5-(6-ethyl-2,6-diazaspiro[3.3]heptan-2-yl)pyridin-2-yl)-5-fluoropyrimidin-2-amine], 20 to 200 nM. As to `CCN1CCN(c2ccc(Nc3ncc(F)c(-c4sc5c(C(C)=O)n(C)nc5c4C)n3)nc2)CC1` [Example 103, 1-(5-(2-((5-(4-ethylpiperazin-1-yl)pyridin-2-yl)amino)-5-fluoropyrimidin-4-yl)-2,6-dimethyl-2H-thieno[3,2-c]pyrazol-3-yl)ethan-1-one], the IC50 lay in the range of 200 to 2000 nM. Take `CCN1CCN(c2ccc(Nc3ncc(F)c(-c4sc5c(C(C)O)n(C)nc5c4C)n3)nc2)CC1` (stereo not drawn) [Example 104, 1-(5-(2-((5-(4-Ethylpiperazin-1-yl)pyridin-2-yl)amino)-5-fluoropyrimidin-4-yl)-2,6-dimethyl-2H-thieno[3,2-c]pyrazol-3-yl)ethan-1-ol]: the IC50 fell in the range of 20 to 200 nM. Turning to `CCN1CCN(c2ccc(Nc3ncc(F)c(-c4sc5c(C(C)C)nn(C)c5c4C)n3)nc2)CC1` [Example 106, 4-(1,6-Dimethyl-3-propan-2-ylthieno[3,2-c]pyrazol-5-yl)-N-[5-(4-ethylpiperazin-1-yl)pyridin-2-yl]-5-fluoropyrimidin-2-amine], the concentration for half-maximal inhibition (IC50) fell in the range of 200 to 2000 nM. In the case of `Cc1nc2cc(-c3nc(Nc4cccnn4)ncc3F)sc2n1C(C)C` [Example 107, N-(5-Fluoro-4-(3-isopropyl-2-methyl-3H-thieno[2,3-d]imidazol-5-yl)pyrimidin-2-yl)pyridazin-3-amine] it was 20 to 200 nM. In the case of `CN1CCC(c2ccc(Nc3ncc(F)c(-c4cc5c(=O)n(C)nc(C67CC(F)(C6)C7)c5s4)n3)nc2)CC1` [Example 110, 2-(5-Fluoro-2-((5-(1-methylpiperidin-4-yl)pyridin-2-yl)amino)pyrimidin-4-yl)-7-(3-fluorobicyclo[1.1.1]pentan-1-yl)-5-methylthieno[2,3-d]pyridazin-4(5H)-one] it was 200 to 2000 nM.

As to `CCN1CCN(c2cccc(Nc3ncc(F)c(-c4sc5c(nc(C)n5C(C)C)c4C)n3)n2)CC1` [Example 113, 4-(2,6-Dimethyl-3-propan-2-ylthieno[2,3-d]imidazol-5-yl)-N-[6-(4-ethylpiperazin-1-yl)pyridin-2-yl]-5-fluoropyrimidin-2-amine], the 50% inhibitory concentration (IC50) lay within 200 to 2000 nM.

Turning to `CCN1CCN(C(C)c2ccc(Nc3ncc(F)c(-c4cc5nc(C)n(C(C)C)c5s4)n3)nc2)CC1` (stereo not drawn) [Example 116, N-[5-[1-(4-Ethylpiperazin-1-yl)ethyl]pyridin-2-yl]-5-fluoro-4-(2-methyl-3-propan-2-ylthieno[2,3-d]imidazol-5-yl)pyrimidin-2-amine], the IC50 is no more than 20 nM. Then `Cc1nc2cc(-c3nc(Nc4ccc(C5C(=O)N(C)CCN5C)cn4)ncc3F)sc2n1C(C)C` (stereo not drawn) [Example 117, 3-[6-[[5-Fluoro-4-(2-methyl-3-propan-2-ylthieno[2,3-d]imidazol-5-yl)pyrimidin-2-yl]amino]pyridin-3-yl]-1,4-dimethylpiperazin-2-one], with no more than 20 nM; and `CCN1CCN(c2ccnc(Nc3ncc(F)c(-c4sc5c(nc(C)n5C(C)C)c4C)n3)c2)CC1` [Example 119, 4-(2,6-Dimethyl-3-propan-2-ylthieno[2,3-d]imidazol-5-yl)-N-[4-(4-ethylpiperazin-1-yl)pyridin-2-yl]-5-fluoropyrimidin-2-amine], with 200 to 2000 nM; and `CCN1CCN(c2ccc(Nc3ncc(F)c(-c4sc5c(C(C)C)ccnc5c4C#N)n3)nc2)CC1` [Example 122, 2-(2-((5-(4-Ethylpiperazin-1-yl)pyridin-2-yl)amino)-5-fluoropyrimidin-4-yl)-7-isopropylthieno[3,2-b]pyridine-3-carbonitrile], with 20 to 200 nM. In the case of `COc1cnc(Nc2ccc(C3CCN(C)CC3)cn2)nc1-c1cc2nc(C)n(C(C)C)c2s1` [Example 127, 4-(3-Isopropyl-2-methyl-3H-thieno[2,3-d]imidazol-5-yl)-5-methoxy-N-(5-(1-methylpiperidin-4-yl)pyridin-2-yl)pyrimidin-2-amine] it was 20 to 200 nM.

As usually defined, the IC50 is the concentration at which inhibition is half-maximal.
